# Patent US20160038439A1, “Use of 7-a-[9-(4,4,5,5,5-pentafluoropentylsulfinyl)nonyl]-estra-1,3,5(10)- triene-3,17B-diol and derivatives thereof” (XI'ANLIBANG PHARMACEUTICAL TECHNOLOGY CO., LTD., priority 2013, published 2016)
# Marks after values point to notes of the source that are not given here.
# Experiments:
# TNF-α [1] = assay: TNF-α level in serum of rats with arthritis (ELISA); format: in vivo, SD rats
# Protocol: (§1) After inflamed model was successfully established in SD rats, the SD rats were randomly divided into model control group (12 rats), low, medium dose group (8 rats for each), and high dose group (12 rats) of test drug depending on body weight. Rats in the model control group were administered a blank fat emulsion injection (0.5 mL) by tail vein injection every other day for 7 days; rats in the low and medium dose group of test drug were administered a fat emulsion injection of a compound of Formula A (specifically including Compounds I-VI described hereafter) by tail vein injection every other day for 7 days; rats in the high dose group of test drug were administered a fat emulsion injection of a compound of Formula A by tail vein injection every other day for 14 days. 12 same models in the normal control group were also administered a blank fat emulsion injection. Indexes such as hindfoot joint score, hindfoot joint thickness measurement, TNF-α level in serum and hindfoot joint tissues, hindfoot joint pathological section and the like were used to evaluate efficacy of the drug.
# (§2) Compound I used in the present invention was purchased from Xi′ an Libang Pharmaceutical Co., Ltd.; Compounds II-IV were synthesized by the following method. SD rats used in the present invention were purchased from Super-B&K Laboratory Animal Corp. Ltd.; chicken type II collagen was purchased from Sigma, Lot No. 87H5227; rat tumor necrosis factor-α [TNF-α] enzyme-linked immunoassay kit (ELISA) was purchased from Shanghai Biovol Biotech Co., Ltd., Lot No. BV-E12102201.
# (§3) Chicken type II collagen was dissolved in 0.1 mol/L acetic acid at 4° C. while stirring so as to be thoroughly dissolved at a concentration of 2 mg/mL The resulting solution was put into a refrigerator at 4° C. overnight. Liquid paraffin and lanolin were mixed at a ratio of 2:1 (volume ratio), and the mixture was autoclaved to prepare an incomplete Freund's adjuvant (IFA). Bacillus Calmette Guerin (BCG) vaccine (60 mg) was inactivated at 80° C. for 1 hour and transferred to a mortar, into which was dropwise added IFA. After being uniformly grinded, the resulting mixture was pushed and sucked repeatedly by double-syringe to prepare a complete Freund's adjuvant (CFA), with the final concentration of BCG vaccine being 2 mg/mL. An equal amount of chicken type II collagen acid solution was mixed with CFA into a stable emulsion (containing 1 mg chicken type II collagen per milliliter).
# (§4) 12 female SD rats were randomly selected from 192 female SD rats as normal control group. The remaining 180 rats was disinfected with iodine tincture. After being deiodinated with 75% ethanol, each of the rat was administered 150 μL collagen emulsion by intradermal injection at the base of the tail, and was administered 100 μL collagen emulsion by intradermal injection at the vola pedis of right hindfoot. Thus, totally 250 μL for each rat was administered. 7 days later, an equal amount of collagen emulsion was intraperitoneal injected as a secondary immune.
# (§5) Animal grouping and administration: inflamed rats were divided into model control group, low, medium and high dose groups of test drug based on body weight.
# (§6) Rats in each group were scored for the hindfoot joint and measured for the thickness of ankle joint before being inflamed. Normal rats were taken blood from orbital venous plexus. The serum of the blood was separated out and cryopreserved at −20° C. to detect cytokines. Rats were scored for joint after being inflamed for 3 days, and were measured for the thickness of ankle joint before administration (on the 19th day since being inflamed), on the 3rd day and 8th day after administration (on the […] since being inflamed). Rats in each group were taken blood from orbital venous plexus when inflammation was severe (on the 23rd day after being inflamed). The serum of the blood was separated out and cryopreserved at −20° C. […]
# TNF-α [2] = assay: TNF-α level in hindfoot ankle joint tissue of rats with arthritis; format: in vivo, SD rats
# Protocol: as §1, §2, §3, §4, §5, §6
# [3] = test system: chicken type II collagen-induced arthritis model in SD rats; assay: Thickness of right hindfoot ankle joint by microcalliper, collagen-induced arthritis rats; format: in vivo
# Protocol: as §1, §3, §4, §5
# (§7) Rats in each group were scored for the hindfoot joint and measured for the thickness of ankle joint before being inflamed. Normal rats were taken blood from orbital venous plexus. The serum of the blood was separated out and cryopreserved at −20° C. to detect cytokines. Rats were scored for joint after being inflamed for 3 days, and were measured for the thickness of ankle joint before administration (on the 19th day since being inflamed), on the 3rd day and 8th day after administration (on the […] since being inflamed). Rats in each group were taken blood from orbital venous plexus when inflammation was severe (on the 23rd day after being inflamed). The serum of the blood was separated out and cryopreserved at −20° C. 8 rats for each group were sacrificed on the 28th day after being inflamed and were taken blood from intraperitoneal vein. The serum of the blood was separated out and was subjected to serological detection (TNF-α). The rest of rats were sacrificed on the 35th day after being inflamed, and histology index detection was carried out
# [4] = test system: chicken type II collagen-induced arthritis model in SD rats; assay: Hindfoot joint score in chicken type II collagen-induced arthritis model in SD rats; format: in vivo; parameters: scale not given here; conditions: tail vein, every other day
# Protocol: as §1, §3, §4, §5, §7
# [5] = test system: chicken type II collagen-induced arthritis model in SD rats; assay: Pathological examination score of hindfoot ankle joint of rats with arthritis; format: in vivo; conditions: high dose group (1.40-2.16 mg/kg per compound), every other day for 14 days, n=4
# Protocol: as §1, §3
# as §4, with “Thus, totally 250 μL for each rat was administered. 7 days later, an equal amount of collagen emulsion was intraperitoneal injected as a secondary immune.” left out
# Rats in each group were scored for the hindfoot joint and measured for the thickness of ankle joint before being inflamed. […] Rats were scored for joint after being inflamed for 3 days, and were measured for the thickness of ankle joint before administration (on the 19th day since being inflamed), on the 3rd day and 8th day after administration (on the 20th day since being inflamed). […]
# [6] = high dose group, the 3rd day after administration
# [7] = high dose group, the 8th day after administration
# [8] = low dose group, the 3rd day after administration
# [9] = low dose group, the 8th day after administration
# [10] = medium dose group, the 3rd day after administration
# [11] = medium dose group, the 8th day after administration
# [12] = high dose group, before administration (baseline)
# [13] = low dose group, before administration (baseline)
# [14] = medium dose group, before administration (baseline)
substance,measurement,setting,value
"7-α-[9-(4,4,5,5,5-pentafluoropentylsulfinyl)nonyl]-estra-1,3,5(10)-triene-3-hydroxyl-17-(undec-2-enoyl) [Compound V]",TNF-α level in serum (mean ± SD),TNF-α [1]; [6],46.48 ± 101.05 pg/mL
same,TNF-α level in serum (mean ± SD),TNF-α [1]; [7],12.35 ± 9.72 pg/mL
same,TNF-α level in serum (mean ± SD),TNF-α [1]; [8],66.71 ± 121.06 pg/mL
same,TNF-α level in serum (mean ± SD),TNF-α [1]; [9],123.73 ± 157.16 pg/mL
same,TNF-α level in serum (mean ± SD),TNF-α [1]; [10],10.02 ± 14.59 pg/mL
same,TNF-α level in serum (mean ± SD),TNF-α [1]; [11],23.44 ± 27.21 pg/mL
same,TNF-α level in ankle (mean ± SD),"TNF-α [2]; left ankle joint, high dose group",12.76 ± 3.34 pg/mL
same,TNF-α level in ankle (mean ± SD),"TNF-α [2]; left ankle joint, low dose group",13.56 ± 5.28 pg/mL
same,TNF-α level in ankle (mean ± SD),"TNF-α [2]; left ankle joint, medium dose group",14.25 ± 5.00 pg/mL
same,TNF-α level in ankle (mean ± SD),"TNF-α [2]; right ankle joint, high dose group",13.68 ± 4.44 pg/mL
same,TNF-α level in ankle (mean ± SD),"TNF-α [2]; right ankle joint, low dose group",12.71 ± 4.00 pg/mL
same,TNF-α level in ankle (mean ± SD),"TNF-α [2]; right ankle joint, medium dose group",11.73 ± 4.20 pg/mL
same,Thickness of ankle joint (mean ± SD),[3]; [12],6.28 ± 0.44 mm
same,Thickness of ankle joint (mean ± SD),[3]; [6],6.44 ± 0.60 mm
same,Thickness of ankle joint (mean ± SD),[3]; [7],6.07 ± 0.41 mm
same,Thickness of ankle joint (mean ± SD),[3]; [13],6.27 ± 0.36 mm
same,Thickness of ankle joint (mean ± SD),[3]; [8],6.36 ± 0.64 mm
same,Thickness of ankle joint (mean ± SD),[3]; [9],6.20 ± 0.52 mm
same,Thickness of ankle joint (mean ± SD),[3]; [14],6.09 ± 0.45 mm
same,Thickness of ankle joint (mean ± SD),[3]; [10],6.74 ± 0.44 mm
same,Thickness of ankle joint (mean ± SD),[3]; [11],6.15 ± 0.37 mm
same,Mean value of hindfoot joint score,[4]; [12],4.5
same,Mean value of hindfoot joint score,[4]; [6],5.6^##
same,Mean value of hindfoot joint score,[4]; [7],4.8
same,Mean value of hindfoot joint score,[4]; [13],4.6
same,Mean value of hindfoot joint score,[4]; [8],5.1**
same,Mean value of hindfoot joint score,[4]; [9],5.9^##
same,Mean value of hindfoot joint score,[4]; [14],4.4
same,Mean value of hindfoot joint score,[4]; [10],5.7^##
same,Mean value of hindfoot joint score,[4]; [11],4.4*
same,Joint lesion score (mean ± SD),[5],3.75 ± 2.06
